Experimental data reported in US9006464B2, “Substituted cyclopentanes having prostaglandin activity” (Allergan, Inc., priority 2007, dated 2015).

Experiments:
EP2 [1] = target: T1, EP2 (Homo sapiens, UniProt P43116); assay: EP2 Ca2+ signal assay; assay type: cell-based
Description: (§1) U.S. patent application Ser. No. 11/553,143, filed on Oct. 26, 2006, incorporated by reference herein, describes the methods used to obtain the in vitro data in Table 1 below.

EP4 [2] = target: T2, EP4 (Homo sapiens, UniProt P35408); assay: EP4 Ca2+ signal assay; assay type: cell-based
Description: as §1

TP = target: T3, TP (Homo sapiens, UniProt P21731); assay: Other receptors Ca2+ assay, TP; assay type: cell-based; conditions: TP receptor
T3 sequence (P21731 1-343): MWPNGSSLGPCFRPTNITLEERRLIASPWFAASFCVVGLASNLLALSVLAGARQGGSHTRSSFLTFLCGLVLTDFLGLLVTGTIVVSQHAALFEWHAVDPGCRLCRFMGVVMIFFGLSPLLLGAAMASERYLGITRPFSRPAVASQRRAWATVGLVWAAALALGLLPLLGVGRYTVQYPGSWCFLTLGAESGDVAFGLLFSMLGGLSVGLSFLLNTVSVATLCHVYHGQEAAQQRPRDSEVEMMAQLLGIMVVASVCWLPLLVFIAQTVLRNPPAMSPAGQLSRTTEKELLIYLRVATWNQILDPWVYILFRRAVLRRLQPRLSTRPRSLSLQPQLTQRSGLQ
Description: as §1

EP1 = target: T4, EP1 (Homo sapiens, UniProt P34995); assay: Other receptors Ca2+ assay, EP1; assay type: cell-based; conditions: EP1 receptor
T4 sequence (P34995 1-402): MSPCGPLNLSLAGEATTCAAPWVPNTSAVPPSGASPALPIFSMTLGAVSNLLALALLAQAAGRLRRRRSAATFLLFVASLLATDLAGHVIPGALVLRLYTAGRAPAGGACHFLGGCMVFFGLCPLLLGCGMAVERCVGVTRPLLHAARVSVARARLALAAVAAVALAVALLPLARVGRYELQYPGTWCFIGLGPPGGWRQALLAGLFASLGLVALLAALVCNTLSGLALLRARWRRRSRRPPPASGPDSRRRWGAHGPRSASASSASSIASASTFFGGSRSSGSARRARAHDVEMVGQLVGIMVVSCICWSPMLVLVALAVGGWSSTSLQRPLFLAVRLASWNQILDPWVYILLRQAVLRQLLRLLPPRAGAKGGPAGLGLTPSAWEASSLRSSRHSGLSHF
Description: as §1

EP3 = target: T5, EP3 (Homo sapiens, UniProt P43115); assay: Other receptors Ca2+ assay, EP3; assay type: cell-based; conditions: EP3 receptor
T5 sequence (P43115 1-390): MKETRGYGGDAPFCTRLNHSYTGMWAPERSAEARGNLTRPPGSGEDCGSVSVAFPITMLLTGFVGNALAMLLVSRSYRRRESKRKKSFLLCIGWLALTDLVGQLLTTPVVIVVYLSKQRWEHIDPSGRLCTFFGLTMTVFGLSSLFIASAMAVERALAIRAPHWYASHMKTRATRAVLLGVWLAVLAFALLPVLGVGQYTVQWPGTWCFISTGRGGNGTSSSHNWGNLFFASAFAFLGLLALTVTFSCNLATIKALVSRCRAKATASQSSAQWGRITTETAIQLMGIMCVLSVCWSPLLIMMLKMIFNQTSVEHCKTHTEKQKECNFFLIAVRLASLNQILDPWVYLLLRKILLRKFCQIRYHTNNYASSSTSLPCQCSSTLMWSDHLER
Description: as §1

DP = target: T6, DP (Homo sapiens, UniProt Q13258); assay: Other receptors Ca2+ assay, DP; assay type: cell-based; conditions: DP receptor
T6 sequence (Q13258 1-359): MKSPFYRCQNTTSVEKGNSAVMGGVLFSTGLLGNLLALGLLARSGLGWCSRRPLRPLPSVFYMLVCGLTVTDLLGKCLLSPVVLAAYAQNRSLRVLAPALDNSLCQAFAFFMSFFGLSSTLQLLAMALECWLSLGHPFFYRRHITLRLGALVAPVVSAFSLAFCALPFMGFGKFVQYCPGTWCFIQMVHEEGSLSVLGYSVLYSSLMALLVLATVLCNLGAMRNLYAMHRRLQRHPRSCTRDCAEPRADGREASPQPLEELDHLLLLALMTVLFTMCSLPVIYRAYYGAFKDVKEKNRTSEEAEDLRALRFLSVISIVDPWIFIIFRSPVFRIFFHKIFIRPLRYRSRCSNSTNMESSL
Description: as §1

EP2 [3] = target: T1, EP2; assay: EP2 binding (Ki)
Description: as §1

EP4 [4] = target: T2, EP4; assay: EP4 binding (Ki)
Description: as §1

FP = FP (Homo sapiens, UniProt P43088); assay: Other receptors Ca2+ assay, FP; assay type: cell-based; conditions: FP receptor
Description: as §1

EP2 [5] = target: T1, EP2; assay: EP2 cAMP assay; assay type: cell-based
Description: as §1

DOG [6] = assay: Dog ocular hyperemia; assay type: in vivo
Description: (§2) U.S. Pat. No. 7,091,231, incorporated by reference herein, describes the methods used to obtain the in vivo test results presented in Table 2.

MONKEY = assay: Monkey intraocular pressure test; assay type: in vivo
Description: as §2

DOG [7] = assay: Dog intraocular pressure test; assay type: in vivo
Description: as §2

IP = IP (Homo sapiens, UniProt P43119); assay: Other receptors Ca2+ assay, IP; assay type: cell-based; conditions: IP receptor
Description: as §1

T2 sequence (P35408 whole entry): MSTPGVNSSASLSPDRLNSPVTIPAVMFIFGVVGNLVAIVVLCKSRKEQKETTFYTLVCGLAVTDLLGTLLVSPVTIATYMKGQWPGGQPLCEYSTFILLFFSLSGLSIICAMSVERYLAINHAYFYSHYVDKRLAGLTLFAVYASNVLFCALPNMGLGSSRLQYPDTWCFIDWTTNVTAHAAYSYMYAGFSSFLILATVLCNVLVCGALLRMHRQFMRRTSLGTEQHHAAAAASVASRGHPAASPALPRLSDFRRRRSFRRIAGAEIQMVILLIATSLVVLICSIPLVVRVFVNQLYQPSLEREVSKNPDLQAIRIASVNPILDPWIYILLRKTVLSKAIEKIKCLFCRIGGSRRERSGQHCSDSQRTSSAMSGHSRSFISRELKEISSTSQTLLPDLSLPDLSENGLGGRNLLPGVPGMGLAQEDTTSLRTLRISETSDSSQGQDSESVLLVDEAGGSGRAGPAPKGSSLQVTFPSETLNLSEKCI
T1 sequence (P43116 whole entry): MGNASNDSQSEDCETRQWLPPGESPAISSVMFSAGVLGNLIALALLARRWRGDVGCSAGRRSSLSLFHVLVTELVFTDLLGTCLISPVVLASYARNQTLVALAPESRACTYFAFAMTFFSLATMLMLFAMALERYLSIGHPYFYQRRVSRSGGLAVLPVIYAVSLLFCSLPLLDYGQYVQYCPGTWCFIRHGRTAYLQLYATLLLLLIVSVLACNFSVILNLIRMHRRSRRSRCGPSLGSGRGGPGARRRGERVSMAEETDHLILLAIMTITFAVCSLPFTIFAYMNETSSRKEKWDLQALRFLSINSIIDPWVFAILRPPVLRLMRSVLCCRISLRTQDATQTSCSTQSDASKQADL
Chain of FP (P43088 whole entry): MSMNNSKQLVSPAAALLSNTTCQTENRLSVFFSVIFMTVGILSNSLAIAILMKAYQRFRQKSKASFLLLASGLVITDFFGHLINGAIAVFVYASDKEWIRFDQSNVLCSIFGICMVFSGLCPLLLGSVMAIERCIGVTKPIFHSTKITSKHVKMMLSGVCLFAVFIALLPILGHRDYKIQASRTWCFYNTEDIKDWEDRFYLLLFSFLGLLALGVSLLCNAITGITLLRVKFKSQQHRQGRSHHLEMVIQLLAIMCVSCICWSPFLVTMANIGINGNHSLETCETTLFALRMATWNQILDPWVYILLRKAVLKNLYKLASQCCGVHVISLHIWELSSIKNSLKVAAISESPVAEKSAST
Chain of IP (P43119 whole entry): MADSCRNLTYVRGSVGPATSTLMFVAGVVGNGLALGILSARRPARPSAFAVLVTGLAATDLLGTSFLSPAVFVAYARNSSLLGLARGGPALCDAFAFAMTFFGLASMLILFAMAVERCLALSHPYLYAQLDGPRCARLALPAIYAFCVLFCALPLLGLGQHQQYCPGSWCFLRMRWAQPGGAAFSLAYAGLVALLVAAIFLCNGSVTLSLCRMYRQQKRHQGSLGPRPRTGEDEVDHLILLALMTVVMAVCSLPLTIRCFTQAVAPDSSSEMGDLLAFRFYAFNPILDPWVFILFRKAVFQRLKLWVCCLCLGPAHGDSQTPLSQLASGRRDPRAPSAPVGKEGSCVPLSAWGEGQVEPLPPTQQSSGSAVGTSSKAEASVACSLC

Compound | EC50 (EP2 [1]) | EC50 (EP4 [2]) | EC50 (TP) | EC50 (EP1) | EC50 (EP3) | EC50 (DP) | Ki (EP2 [3]) | Ki (EP4 [4]) | EC50 (FP) | EC50 (EP2 [5]) | DOG Max. hyperemia (DOG [6]; Conc. 0.01 g/100 mL) | MONKEY Max. ΔIOP (MONKEY; Conc. 0.01 g/100 mL) | DOG Max. ΔIOP (DOG [7]; Conc. 0.01 g/100 mL) | EC50 (IP) | DOG Max. hyperemia (DOG [6]; Conc. .005% (g/100 mL)) | MONKEY Max. ΔIOP (MONKEY; Conc. .005% (g/100 mL)) | DOG Max. ΔIOP (DOG [7]; Conc. .005% (g/100 mL))
C=CCCCCCC[C@@H]1[C@@H](CCCc2ccc(C(=O)O)s2)[C@H](Cl)C[C@H]1O [Entry 12, 5-[3-((1R,2R,3R,5R)-5-Chloro-3-hydroxy-2-oct-7-enyl-cyclopentyl)-propyl]-thiophene-2-carboxylic acid] | 0.007 µM | 6.47 µM | 10.3 µM | 0.883 µM | 4.99 µM | 3.21 µM | 0.003 µM | 0.351 µM | 7.57 µM | 0.0002 µM |  |  |  |  |  |  | 
CCCCCCCC[C@@H]1[C@@H](CCCc2ccc(C(=O)O)s2)[C@H](Cl)C[C@H]1O [Entry 4, 5-[3-((1R,2R,3R,5R)-5-Chloro-3-hydroxy-2-octyl-cyclopentyl)-propyl]-thiophene-2-carboxylic acid] | 0.011 µM | 11.4 µM |  | 18.2 µM | 9.53 µM | 6.77 µM | 0.0005 µM | 0.395 µM |  | 0.0004 µM | 1.3 | 31% | 40% |  |  |  | 
CCCCCCC[C@@H]1[C@@H](CCCc2ccc(C(=O)O)s2)[C@H](Cl)C[C@H]1O [Entry 3, 5-[3-((1R,2R,3R,5R)-5-Chloro-2-heptyl-3-hydroxy-cyclopentyl)-propyl]-thiophene-2-carboxylic acid] | 0.067 µM | 7.51 µM | ≥ 10 µM | 3.39 µM | 6.66 µM | 2.25 µM | 0.003 µM | 0.33 µM | ≥ 10 µM | 0.002 µM |  |  |  | > 10 µM |  |  | 
CCCCCCCC[C@@H]1[C@@H](CCSc2nc(C(=O)O)cs2)[C@H](Cl)C[C@H]1O [Entry 6-8, 2-(2-((1R,2R,3R,5R)-5-chloro-3-hydroxy-2-octylcyclopentyl)ethylthio)thiazole-4-carboxylic acid] |  |  |  |  |  |  |  |  |  |  |  |  |  |  | 2.4 | 56% | 44%
